Patent publication EP0697407B1, “Pyrimidinedione derivatives and antiarrhythmic compositions containing same” (MITSUI TOATSU CHEMICALS, Inc., priority 1994, dated 1996)

Key:
[1] = Toxicity test (mortality rate 24 hours after administration); details: mouse, in vivo, ip; 100 mg/kg (i.p.); twenty-four hours after administration; groups of three mice
Procedure: The test compounds were separately administered to mice (ddy strain, male). The administration of each compound was carried out intraperitoneally (i.p.) in a dose of 100 mg/kg. Twenty-four hours after the administration, the mortality rate of the mice (in groups of three) was examined.

[2] = system: ventricular muscle; experiment: Effect on ventricular muscle refractory period (ERP) under ventricular pacing in anesthetized dog; format: in vivo, mongrel adult dog; details: ventricular pacing at 400 msec
Procedure: According to the method described below, the refractory period was measured before and after the intravenous administration of each test compound, and the percent prolongation of refractory period (ERP) was calculated according to the following equation. ERP prolongation (%) =(W - Y)/(Y)x 100 [formula] where W: Refractory period after administration Y: Refractory period before administration
After a mongrel adult dog was anesthetized by the intravenous (i.v.) administration of 30 mg/kg of pentobarbital, the chest was opened on the right side. Then, a set of silver-silver chloride electrodes spaced by 3 mm was sewn on the right ventricle, and […] electrical stimuli (a duration of 4 msec, and a current intensity equal to twice the threshold) were given at an interval of 400 msec. Thereafter, a small amount of alcohol was injected into a sinus artery in order to destroy the pacemaker activity, and the ventricular refractory period (ERP) was measured under ventricular pacing. Specifically, one train comprised a series of stimuli having an interval of 400 msec, and the interval between trains was usually 400 msec. During measurement of the refractory period, this interval was shortened by decrements of 10 msec, and the interval between trains at which the response to the first stimulus of the train disappeared was regarded as the refractory period. These electrical stimuli were given by programmed stimulation using a heart stimulation apparatus (Diamedical Co., Ltd.; DHM-226-3).

[3] = system: right Purkinje fiber; experiment: Effect on myocardial action potential duration (APD75) in isolated, perfused Purkinje fiber; format: cell-based, mongrel adult dog; details: Canis lupus familiaris, 20 min, 20 minutes' incubation, field stimulus of 1 Hz, 37°C, read-out: T (%), percent prolongation of myocardial action potential duration (APD75)
Procedure: After a mongrel adult dog was anesthetized by the intravenous administration of 30 mg/kg of pentobarbital, the heart was excised therefrom. Then, the right Purkinje fiber was isolated in a nutrient fluid (i.e., Tyrode's solution). The isolated right Purkinje fiber was fixed in a constant-temperature bath (20 ml) at 37°C and perfused with Tyrode's solution. In this state, the myocardial action potential duration (APD75) was measured before and after the administration of each test compound. Then, the percent prolongation of myocardial action potential duration (T) after the administration of each test compound was calculated according to the following equation. T(%) =(B - A)/(A)x 100 [formula] where A: APD75 before administration B: APD75 after administration
APD75 was measured as follows: A field stimulus of 1 Hz was given to the right Purkinje fiber, and any change in action potential was detected by a glass microelectrode (10-20 MΩ) penetrated into a Purkinje fiber and monitored on an oscilloscope via an amplifier. The waveform on the oscilloscope was analyzed by means of a computer, and the duration beween the point of action potential generation adn the point of 75% repolarization was defined as APD75. The test compounds shown in Table 2 were separately added to the perfusing nutrient fluid, and after 20 minutes' incubation was recorded. This test was carried out according to the method of Sato et al. [S. Sato, K. Hashimoto; Arzneimittel Forschung, 34(1), 3a, 376-380(1984)].

[4] = Stability test in acid aqueous solution (Solution 1 of the Japanese Pharmacopoeia, pH 1.2), remaining compound by HPLC; format: physicochemical; details: Solution 1 (pH 1.2), 2 mg/ml, stirred at 37°C, HPLC
Procedure: In order to confirm the stability of the compounds of the present invention in an acid aqueous solution, stability was tested on the fumarate of 6-[3-[N-[2-(4-methanesulfonylaminophenyl)ethyl]-N-propylamino]propyl]-1,3-dimethyl-2,4(1H,3H)pyrimidinedione (the compound obtained in Example 118; hereinafter referred to as compound A) which is a compound in accordance with the present invention, and 1,3-dimethyl-6-{2-[N-ethyl-3-phenylpropylamino]ethylamino}2,4(1H,3H)-pyrimidinedione (hereinafter referred to as compound B) which is a pyrimidinedione derivative having a substituted amino group at the 6-position of the pyrimidinedione ring as described in European Publication No. 454,498 A2 and was used for purposes of comparison.
Solution 1 (pH 1.2) described in the Japaense Pharmacopoeia was prepared by adding 7.0 ml of hydrochloric acid and water to 2.0 g of sodium chloride so as to give the final volume of 1,000 ml.
Compounds A and B were dissolved in Solution 1 at a concentration of 2 mg/ml and the resulting solutions were stirred at 37°C. Thus, changes with time in the percentages of the remaining compounds A and B were examined by HPLC.

In the case of `CCCN(CCCc1cc(=O)n(C)c(=O)n1C)CCc1ccc(NS(C)(=O)=O)cc1` [Example 118, 6-[3-[N-[2-(4-methanesulfonylaminophenyl)ethyl]-N-propylamino]propyl]-1,3-dimethyl-2,4(1H,3H)pyrimidinedione], the mortality at 24 h [1] is reported as 0%, the “ERP (%), percent prolongation of refractory period” value (shortened to “ERP (%), percent prolongation”) ([2]; Dose 0.1 mg/kg i.v.) is reported as 6.7% and the “ERP (%), percent prolongation” value ([2]; Dose 0.3 mg/kg i.v.) is reported as 20.0%. For the same compound, the “ERP (%), percent prolongation” value ([2]; Dose 1.0 mg/kg i.v.) was 33.3%, the activation at 1 µM ([3]; Dose 1 x 10^-6 M) was 16% and the activation at 10 µM ([3]; Dose 10 x 10^-6 M) was 54%. For the same compound, the activation at 100 µM ([3]; Dose 100 x 10^-6 M) was 81%, the “Percentage of remaining compound” value ([4]; 0 hr) was 100% and the remaining at 3 h ([4]; jp solution 1, 3 hr, read-out: Percentage of remaining compound) was 100%. It also gave a remaining at 6 h ([4]; jp solution 1, 6 hr, read-out: Percentage of remaining compound) of 99%.
